Assay results taken from patent US9637498B2, “Substituted thieno[2,3-C]pyridazine-6-carboxamide analogs as positive allosteric modulators of the muscarinic acetylcholine receptor M4” (Vanderbilt University, priority 2013, dated 2017).

Target: T1, mAChR M4 (Homo sapiens, UniProt P08173)
T1 construct: expressed in transfected cells; host or cells: CHO-K1 cells, also stably transfected with the chimeric G-protein Gqi5
T1 sequence (P08173 1-479): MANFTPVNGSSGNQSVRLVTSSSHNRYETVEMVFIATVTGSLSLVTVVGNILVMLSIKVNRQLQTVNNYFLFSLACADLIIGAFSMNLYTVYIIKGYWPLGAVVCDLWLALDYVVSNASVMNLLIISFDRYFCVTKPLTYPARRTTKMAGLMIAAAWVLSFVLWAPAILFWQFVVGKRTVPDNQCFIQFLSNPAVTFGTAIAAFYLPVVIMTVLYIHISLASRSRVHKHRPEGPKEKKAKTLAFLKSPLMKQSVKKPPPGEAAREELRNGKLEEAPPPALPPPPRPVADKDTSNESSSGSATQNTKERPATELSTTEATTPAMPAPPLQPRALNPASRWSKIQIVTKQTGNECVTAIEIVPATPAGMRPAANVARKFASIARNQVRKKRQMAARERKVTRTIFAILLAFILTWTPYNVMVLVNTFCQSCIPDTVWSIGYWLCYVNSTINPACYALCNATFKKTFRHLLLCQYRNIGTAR
Experiment: mAChR M4 cell-based functional assay (calcium mobilization, potentiation of EC20 acetylcholine response)
Details: for EC50: CHO-K1 cells expressing mAChR M4 (Gqi5), calcium flux, increase in EC20 acetylcholine response, >10,000 estimated where the curve has no plateau; for Emax at 30 µM: % ACh maximum at 30 μM
From the text: Chinese hamster ovary (CHO-K1) cells stably expressing rat (r)M1 were purchased from the American Type Culture Collection and cultured according to their indicated protocol. CHO cells stably expressing human (h)M2, hM3, and hM5 were described previously (Levey et al., 1991); hM1 and hM4 cDNAs were purchased from Missouri S&T cDNA Resource; rM4 cDNA was provided by T. I. Bonner (National Institutes of Health, Bethesda, Md.). rM2 and rM3 were cloned from a rat brain cDNA library and sequence verified. hM1, rM2, rM3, hM4, and rM4 cDNAs were used to stably transfect CHO-K1 cells purchased from the American Type Culture Collection using Lipofectamine 2000. To make stable rM2, hM2, hM4, and rM4 cell lines for use in calcium mobilization assays, these cells also were stably transfected with a chimeric G-protein (Gqi5) (provided by B. R. Conklin, University of California, San Francisco) using Lipofectamine 2000. rM1, hM1, rM3, hM3, rM5, and hM5 cells were grown in Ham's F-12 medium containing 10% heat-inactivated fetal bovine serum (FBS), 20 mM HEPES, and 50 µg/mL G418 sulfate. rM2-Gqi5, hM2-Gqi5, and hM4-Gqi5 cells were grown in the same medium also containing 500 µg/mL Hygromycin B. Stable rM4-Gqi5 cells were grown in DMEM containing 10% heat-inactivated FBS, 20 mM HEPES, 400 μg/mL G418 sulfate, and 500 μg/mL Hygromycin B.
For high throughput measurement of agonist-evoked increases in intracellular calcium, CHO-K1 cells stably expressing muscarinic receptors were plated in growth medium lacking G418 and hygromycin at 15,000 cells/20 μL/well in Greiner 384-well black-walled, tissue culture (TC)-treated, clear-bottom plates (VWR). Cells were incubated overnight at 37° C. and 5% CO2. The next day, cells were washed using an ELX 405 (BioTek) with four washes (80 μL) of assay buffer then aspirated to 20 μL. Next, 20 μL of 16 μM Fluo-4/acetoxymethyl ester (Invitrogen, Carlsbad, Calif.) prepared as a 2.3 mM stock in DMSO and mixed in a 1:1 ratio with 10% (w/v) Pluronic F-127 and diluted in assay buffer was added to the wells and the cell plates were incubated for 50 min at 37° C. and 5% CO2. Dye was removed by washing with the ELX 405 (four 80 μL washes of assay buffer) then aspirated to 20 μL. Compound master plates were formatted in an 11 point CRC format (1:3 dilutions) in 100% DMSO with a starting concentration of 10 mM using the BRAVO liquid handler (Agilent). Test compound CRCs were then transferred to daughter plates (240 nL) using the Echo acoustic plate reformatter (Labcyte, Sunnyvale, Calif.) and then diluted into assay buffer (40 μL) to a 2× stock using a Thermo Fisher Combi (Thermo Fisher Scientific, Waltham, Mass.).
Calcium flux was measured using the Functional Drug Screening System (FDSS) 6000 (Hamamatsu Corporation, Tokyo, Japan) as an increase in the fluorescent static ratio. Compounds were applied to cells (20 μL, 2×) using the automated system of the FDSS 6000 at 4 s into the 300 s protocol and the data were collected at 1 Hz. At 144 s into the 300 s protocol, 10 μL of an EC20 concentration of the muscarinic receptor agonist acetylcholine was added (5×), followed by the addition of 12 μL an EC80 concentration of acetylcholine at the 230 s time point (5×). Agonist activity was analyzed as a concentration-dependent increase in calcium mobilization upon compound addition. Positive allosteric modulator activity was analyzed as a concentration-dependent increase in the EC20 acetylcholine response. Antagonist activity was analyzed as a concentration-dependent decrease in the EC80 acetylcholine response. Concentration-response curves were generated using a four-parameter logistical equation in XLFit™ curve fitting software (IDBS, Bridgewater, N.J.) for Excel (Microsoft, Redmond, Wash.) or Prism (GraphPad Software, Inc., San Diego, Calif.). […]

Row | EC50 [µM] | Emax at 30 µM [%] | SMILES
1 | 1 | 53 | Cc1nnc2sc(C(=O)NC3CN(c4ccc(C(F)(F)F)nc4)C3)cc2c1C [B3]
2 | > 10 | – | Cc1nnc2sc(C(=O)NC3CCN(c4ccccc4)C3)cc2c1C (centres unmarked) [B5]
3 | 2 | 59 | COc1ccc(CNC(=O)c2sc3nnc(C)c(C)c3c2C)cc1F [B9]
4 | > 10 | 35 | Cc1nnc2sc(C(=O)NC3CC3)c(C3CC3)c2c1C [B11]
5 | ~9 | 46 | Cc1nnc2sc(C(=O)NC3COC3)c(C3CC3)c2c1C [B13]
6 | > 10 | 68 | Cc1nnc2sc(C(=O)NC3CC3)c(C)c2c1C [B14]
7 | 5.2 | 33 | Cc1nnc2sc(C(=O)NC3CCC3)c(C3CC3)c2c1C [B15]
8 | > 10 | – | Cc1nnc2sc(C(=O)N3CCC(c4ccccc4)C3)c(C)c2c1C (centres unmarked) [B19]
9 | 0.91 | 69 | Cc1nnc2sc(C(=O)NC3CN(c4cccnc4)C3)c(C)c2c1C [B20]
10 | 2.1 | 51 | COc1ccc(C2CC2NC(=O)c2sc3nnc(C)c(C)c3c2C)cc1 (centres unmarked) [B21]
11 | 3.1 | 24 | Cc1nnc2sc(C(=O)NC3CN(c4ccc(C(F)(F)F)nc4)C3)c(C3CC3)c2c1C [B22]
12 | > 10 | 65 | Cc1nnc2sc(C(=O)NC3COC3)c(C)c2c1C [B23]

More lines, now with the values behind:

Row | SMILES | EC50 [µM] | Emax at 30 µM [%]
13 | Cc1nnc2sc(C(=O)NCc3ccc(S(=O)(=O)C(F)(F)F)cc3)c(Br)c2c1C [B1] | > 10 | –
14 | COc1ccc(CNC(=O)c2sc3nnc(C)c(C)c3c2Br)cc1 [B2] | 3.7 | 36
15 | COc1ccc(CNC(=O)c2cc3c(C)c(C)nnc3s2)cc1F [B4] | 1.4 | 68
16 | Cc1nnc2sc(C(=O)NC3COC3)cc2c1C [B6] | 3.9 | 76
17 | Cc1nnc2sc(C(=O)NC3CC3)cc2c1C [B7] | 4.3 | 72
18 | Cc1nnc2sc(C(=O)N3CC(c4ccccc4)C3)c(C3CC3)c2c1C [B8] | > 10 | –
19 | COc1ccc(C2CC2NC(=O)c2sc3nnc(C)c(C)c3c2C2CC2)cc1 (centres unmarked) [B12] | > 10 | –
20 | Cc1nnc2sc(C(=O)N3CCC(c4ccccc4)C3)c(C3CC3)c2c1C (centres unmarked) [B16] | > 10 | –
21 | Cc1nnc2sc(C(=O)NC3CC(F)(F)C3)c(C3CC3)c2c1C [B17] | > 10 | 35
22 | COc1ccc(CNC(=O)c2sc3nnc(C)c(C)c3c2C2CC2)cc1F [B18] | 4.4 | 38
